EC50 and inhibition data for 13 compounds are collected here from patent US20250197357A1, “PPARG INVERSE AGONISTS AND USES THEREOF” (Flare Therapeutics Inc., priority 2022, published 2025).

The target of test [1] is T1, PPARG/RXRA LBD heterodimer (Homo sapiens, UniProt P37231).
T1 construct: 2 nM WT PPARG LBD (e. coli expressed, His-TEV-Q203-Y477); fused on or other part: N-terminal His tag with TEV site on the PPARG LBD
As to the kind of experiment: PPARγ-NCOR1 recruitment assay (TR-FRET). As to conditions: NCOR1 ID2 peptide, 80 nM Rosiglitazone, 3 hours, read-out: PPARG - NCOR recruitment assay EC50. The test is classed as binding. The protocol:
Compound potency (EC50) and maximal extent of NCOR1 recruitment to PPARG were assessed a TR-FRET binding assay measuring association of a biotinylated NCOR1 ID2 peptide (Biotin-[…]-amide) to PPARG/RXRA LBD heterodimer. Specifically, a 20 microliters of TR-FRET master mix consisting of 2 nM WT PPARG LBD (e. coli expressed, His-TEV-Q203-Y477; Uniprot ID P37231-2), 2 nM WT RXRA LBD or mutant S427F RXRA LBD (e. coli expressed, Flag-TEV-E228-T462; […]. Mixtures were incubated for 3 hours and read in an EnVision plate reader (Perkin Elmer) with Ex/Em 615/665. To determine the potency (EC50) and extent of NCOR1 recruitment, TR-FRET ratios were normalized to the average ratio of DMSO control wells (0%) and to the average maximum ratio for positive control compound (T0070907 (2-chloro-5-nitro-N-4-pyridinyl-benzamide); defined as 100%) in CDD Vault and analyzed using the Levenberg-Marquardt algorithm.
(Time-resolved FRET reads energy transfer from a long-lived donor to a nearby acceptor.)
T1 sequence (O75376 2251-2273 limits assumed, one chain of several, further chain): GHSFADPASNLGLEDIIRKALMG

In test [2] the target is T2, PPARG/RXRA LBD heterodimer (Homo sapiens, UniProt P37231).
T2 construct: His-TEV-Q203-Y477; Uniprot ID P37231-2; made in house; host or cells: E. coli
T2 sequence (P37231 203-477 isoform P37231-2): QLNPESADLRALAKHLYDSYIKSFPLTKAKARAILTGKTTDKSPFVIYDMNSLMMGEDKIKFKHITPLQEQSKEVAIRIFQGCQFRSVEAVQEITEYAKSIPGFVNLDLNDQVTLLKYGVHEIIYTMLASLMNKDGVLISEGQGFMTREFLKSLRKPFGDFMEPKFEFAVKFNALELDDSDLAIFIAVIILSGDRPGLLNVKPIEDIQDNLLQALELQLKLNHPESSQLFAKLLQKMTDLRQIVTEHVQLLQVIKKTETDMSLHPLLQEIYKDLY
T2 sequence (P19793 228-462 partner limits assumed): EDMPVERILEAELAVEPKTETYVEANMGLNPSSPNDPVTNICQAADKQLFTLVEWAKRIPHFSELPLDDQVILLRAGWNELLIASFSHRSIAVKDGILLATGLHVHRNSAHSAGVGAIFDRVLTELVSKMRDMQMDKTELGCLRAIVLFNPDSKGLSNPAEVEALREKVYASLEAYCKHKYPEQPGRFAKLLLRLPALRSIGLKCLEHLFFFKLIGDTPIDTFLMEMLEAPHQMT
The test can be described thus: PPARγ-MED1 blockade assay (TR-FRET). The test is classed as binding. As to conditions: MED1 LxxLL peptide, 80 nM Rosiglitazone, 3 hours. The procedure: Compound potency (IC50) and maximal extent of MED1 repulsion to PPARG were assessed a TR-FRET binding assay measuring association of a biotinylated MED1 LxxLL peptide (Biotin—[…]-amide) to PPARG/RXRA LBD heterodimer. Specifically, a 20 microliters of TR-FRET master mix consisting of 2 nM WT PPARG LBD (e. coli expressed, His-TEV-Q203-Y477; Uniprot ID P37231-2), 2 nM WT RXRA LBD (e. coli expressed, Flag-TEV-E228-T462; […]. Mixtures were incubated for 3 hours and read in an EnVision plate reader (Perkin Elmer) with Ex/Em 615/665. To determine the potency (IC50) and extent of MED1 repulsion, TR-FRET ratios were normalized to the average ratio of DMSO control wells (0%) and to the average minimum ratio for positive control compound (GW9662 (2-chloro-5-nitrobenzanilide); defined as 100%) in CDD Vault and analyzed using the Levenberg-Marquardt algorithm.

Test [3] concerns ANGPTL4, a PPARG target gene, in HT1197 (RXRA S427F mutation) cells. As to the kind of experiment: Bladder cancer pharmacodynamic assay (HT1197 cell assay, qPCR of PPARG target genes). The test is classed as cell-based. As to conditions: Homo sapiens, 100 nM compound, 24 hours, relative to DMSO control. The protocol:
5637 (PPARG amplified) and HT1197 (RXRA S427F mutation) cells were used for assessment of modulation of PPARG target genes using quantitative PCR. Cells were treated for 24 hours with PPARG inverse agonists prior to analysis of FABP4 (IDT, Cat: Hs.PT 58.20106818) and ANGPTL4 (IDT, Cat: Hs.PT 58.25480012) expression, with expression of the housekeeping gene TBP (IDT, Cat: Hs.PT 58v.39858774) used to normalize expression across samples. Quantitative PCR was performed using an ABI QuantStudio 7 Flex Reaction system. Data were analyzed and reported relative to DMSO control using the comparative Ct method (ΔΔCt).
In general terms: Quantitative PCR measures a nucleic acid by following its amplification.

As usually defined, the EC50 is the concentration giving half of the maximal effect. For orientation: inhibition means the relative decrease from the control value, in per cent. For the compound `CS(=O)(=O)c1ccc(C#N)cc1C(=O)Nc1ccc2ccncc2c1` [Example 22, 5-cyano-N-(isoquinolin-7-yl)-2-(methylsulfonyl) benzamide], the concentration giving a half-maximal response (EC50) in test [1] and in test [2] was > 10000 nM each time. The inhibition at 0.1 µM in test [3] amounted to 0%.
Consider `CS(=O)(=O)c1ccc(C#N)cc1C(=O)Nc1cc(F)c(-c2ccc3c(c2)C(=O)NC3)c(F)c1` [Example 23, 5-cyano-N-(3,5-difluoro-4-(3-oxoisoindolin-5-yl)phenyl)-2-(methylsulfonyl) benzamide], for which the EC50 in test [1] and in test [2] was 10 to 100 nM each time. For the same compound, in test [3], the inhibition at 0.1 µM stood at 19%.
For the compound `N#Cc1ccc(SC(F)(F)F)c(C(=O)Nc2ccnc(C(F)(F)F)c2)c1` [Example 24, 5-cyano-N-(2-(trifluorometh-yl)pyridin-4-yl)-2-((trifluorometh-yl)thio)benzamide], the EC50 in test [1] and in test [2] was 1000 to 10000 nM in each case. Further, in test [3], the inhibition at 0.1 µM was determined as 49%.
Take `CS(=O)(=O)c1ccc(C#N)cc1C(=O)Nc1cc(F)cc(C#N)c1` [Example 25, 5-cyano-N-(3-cyano-5-fluorophenyl)-2-(methylsulfonyl) benzamide]: the concentration for a half-maximal effect (EC50) in test [1] and in test [2] was 100 to 1000 nM each time. The inhibition at 0.1 µM in test [3] was determined as 77%.
On to `N#Cc1ccc(SC(F)(F)F)c(C(=O)Nc2cc(F)cc(Oc3ccc(Cl)cc3)c2)c1` [Example 26, N-(3-(4-chlorophenoxy)-5-fluorophenyl)-5-cyano-2-((trifluorometh-yl)thio)benzamide], for which the concentration for a half-maximal effect (EC50) in test [1] and in test [2] was 100 to 1000 nM in each case. Besides, the inhibition at 0.1 µM in test [3] was -160%.
On to `CN1Cc2ccc(-c3c(F)cc(NC(=O)c4cc(C#N)ccc4SC(F)(F)F)cc3F)cc2C1=O` [Example 27, 5-cyano-N-(3,5-difluoro-4-(2-methyl-3-oxoisoindolin-5-yl)phenyl)-2-((trifluorometh-yl)thio)benzamide], for which the EC50 in test [1] and in test [2] was 100 to 1000 nM in each case. The inhibition at 0.1 µM in test [3] was determined as 79%.
For `Cn1cc(-c2c(F)cc(NC(=O)c3cc(C#N)ccc3S(C)(=O)=O)cc2F)cn1` [Example 28, 5-cyano-N-(3,5-difluoro-4-(1-methyl-1H-pyrazol-4-yl)phenyl)-2-(methylsulfonyl) benzamide], the EC50 in test [1] and in test [2] was 100 to 1000 nM in each case. For the same compound, the inhibition at 0.1 µM in test [3] is 72%.
As for `Cn1cc(-c2c(F)cc(NC(=O)c3cc(C#N)ccc3SC(F)(F)F)cc2F)cn1` [Example 29, 5-cyano-N-(3,5-difluoro-4-(1-methyl-1H-pyrazol-4-yl)phenyl)-2-((trifluorometh-yl)thio)benzamide], the EC50 in test [1] and in test [2] was 100 to 1000 nM each time. Moreover, the inhibition at 0.1 µM in test [3] was 65%.
As for `Cc1cc(NC(=O)c2cc(C#N)ccc2S(C)(=O)=O)cnc1C(F)(F)F` [Example 30, 5-cyano-N-(5-methyl-6-(trifluorometh-yl)pyridin-3-yl)-2-(methylsulfonyl) benzamide], the EC50 in test [1] and in test [2] was 1000 to 10000 nM each time. In addition, in test [3], the inhibition at 0.1 µM was found to be 42%.
As to `CS(=O)(=O)c1cnc(C#N)cc1C(=O)Nc1cc(F)cc(F)c1` [Example 31, 2-cyano-N-(3,5-difluorophenyl)-5-(methylsulfonyl)isonicotinamide], the half-maximal effective concentration (EC50) in test [1] and in test [2] was 10 to 100 nM throughout. Moreover, in test [3], the inhibition at 0.1 µM came to 72%.
As for `CS(=O)(=O)c1cnc(C#N)cc1C(=O)Nc1ccnc(C(F)(F)F)c1` [Example 32, 2-cyano-5-(methylsulfonyl)-N-(2-(trifluoromethyl)py-ridin-4-yl)isonicotinamide], the EC50 in test [1] and in test [2] was 100 to 1000 nM each time. In addition, the inhibition at 0.1 µM in test [3] is 80%.
Take `N#Cc1ccc(S(=O)(=O)CC(F)(F)F)c(C(=O)Nc2cc(F)cc(F)c2)c1` [Example 33, 5-cyano-N-(3,5-difluorophenyl)-2-((2,2,2-trifluoroethyl)sulfonyl)benzamide]: the EC50 in test [1] and in test [2] was 1000 to 10000 nM throughout. Also, the inhibition at 0.1 µM in test [3] is 19%.
In the case of `N#Cc1cc(C(=O)Nc2cc(F)cc(F)c2)c(S(=O)(=O)CC(F)(F)F)cn1` [Example 34, 2-cyano-N-(3,5-difluorophenyl)-5-((2,2,2-trifluoroethyl)sulfonyl) isonicotinamide], the EC50 in test [1] and in test [2] was 100 to 1000 nM in each case. Besides, the inhibition at 0.1 µM in test [3] amounted to 59%.
